The source made the active and inactive calls.
Tests used:
BJ [1] = test: growth inhibition of engineered Ras-driven BJ cells – cell-based, alamar blue fluorescence, cherrypicked samples, dose response (AID 2631); format: functional; details: Homo sapiens;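 also: confirmatory dose-response assay in RAS-dependent BJ fibroblasts engineered with TERT, LT and ST, with cytotoxicity read by fluorescence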
[2] = biological target: T1, Orexin/Hypocretin receptor type 1 (Homo sapiens, UniProt O43613); test: Homogeneous Time Resolved Fluorescence (HTRF)-based cell-based high throughput dose response assay for antagonists of the orexin 1 receptor (OX1R; HCRTR1). [Related pubchem assays (depositor defined):AID434989, AID435008, AID463079, AID485270, AID492963, AID492964, AID492965, AID493232, AID504717, AID504718]; format: functional
T1 sequence (O43613 whole entry): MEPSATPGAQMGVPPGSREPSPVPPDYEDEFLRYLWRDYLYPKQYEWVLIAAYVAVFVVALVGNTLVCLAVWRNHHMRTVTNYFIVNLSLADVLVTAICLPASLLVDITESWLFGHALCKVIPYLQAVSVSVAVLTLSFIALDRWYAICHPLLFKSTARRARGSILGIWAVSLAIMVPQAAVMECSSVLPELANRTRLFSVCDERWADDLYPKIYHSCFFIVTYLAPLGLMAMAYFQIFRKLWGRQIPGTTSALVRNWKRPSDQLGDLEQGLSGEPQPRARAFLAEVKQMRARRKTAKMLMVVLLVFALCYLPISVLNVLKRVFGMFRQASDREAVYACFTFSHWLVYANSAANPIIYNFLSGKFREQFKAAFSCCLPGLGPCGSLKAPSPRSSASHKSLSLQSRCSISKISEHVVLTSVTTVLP

BJ [3] = test: cells; format: functional, cell-based; details: Homo sapiens
[4] = HEK-293T viability loss, compound-treated – cell-based, uHTS hits, cytotoxicity control for B/T-cell NF-kB inhibitor project, dose response (AID 489019); format: functional;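 also: IC50 reflects cytotoxicity as loss of cell viability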
Jurkat = test: blockers of NF-kB activation in T cells – Jurkat, luciferase reporter, luminescence, B- and T-cell, dose response (AID 489004); format: functional, cell-based; details: Homo sapiens;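 also: NF-kB luciferase reporter Jurkat cells stimulated with PMA plus ionomycin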
[5] = biological target: Luciferin 4-monooxygenase (Photinus pyralis, UniProt P08659); test: inhibition of purified Photinus pyralis luciferase – biochemical, luminescence, dose response (AID 1891)
Sequence of Luciferin 4-monooxygenase (P08659 whole entry): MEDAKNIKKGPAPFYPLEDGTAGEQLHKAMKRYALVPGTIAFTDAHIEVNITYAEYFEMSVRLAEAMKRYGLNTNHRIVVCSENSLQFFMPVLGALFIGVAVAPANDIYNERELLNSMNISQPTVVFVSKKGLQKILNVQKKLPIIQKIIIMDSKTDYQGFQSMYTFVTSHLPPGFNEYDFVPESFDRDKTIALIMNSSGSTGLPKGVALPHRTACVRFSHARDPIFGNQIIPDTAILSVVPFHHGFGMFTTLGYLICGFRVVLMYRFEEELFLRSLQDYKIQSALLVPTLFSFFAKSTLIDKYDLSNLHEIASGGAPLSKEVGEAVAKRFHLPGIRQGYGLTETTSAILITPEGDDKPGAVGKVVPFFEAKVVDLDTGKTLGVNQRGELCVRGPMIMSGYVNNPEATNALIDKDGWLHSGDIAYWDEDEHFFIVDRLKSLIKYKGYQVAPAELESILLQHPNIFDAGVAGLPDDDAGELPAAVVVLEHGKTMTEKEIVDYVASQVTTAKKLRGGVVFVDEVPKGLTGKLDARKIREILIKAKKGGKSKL

BJ [6] = test: BJ-TERT-LT-ST fibroblast viability loss – cell-based, RAS-independent, luminescence, dose response (AID 1935); format: functional; details: Homo sapiens;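 also: BJ fibroblasts immortalized with TERT plus LT and ST oncogenes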
[7] = DRD fibroblast viability loss – cell-based, non-viral oncogenic, luminescence, dose response (AID 1934); format: functional; details: Homo sapiens
[8] = Luminescence Cell-Based Dose Confirmation HTS to Identify Inhibitors of Platelet Dense Granule Release. [Related pubchem assays: 1663 (Primary HTS), 1678 (Summary of Project)]; format: functional
BJ [9] = test: BJ-TERT fibroblast viability loss – cell-based, RAS-independent, luminescence, dose response (AID 1933); format: functional; details: Homo sapiens
[10] = biological target: T1, Orexin/Hypocretin receptor type 1; test: Fluorescence-based cell-based high throughput dose response assay for antagonists of the orexin 1 receptor (OX1R; HCRTR1). [Related pubchem assays (depositor defined):AID434989, AID435008, AID463079, AID485270, AID492963, AID492964, AID492965, AID493232, AID504717, AID504718]; format: functional
CHO-K1 = test: (§1) Counterscreen for antagonists of the orexin 1 receptor (OX1R; HCRTR1): Homogeneous time resolved fluorescence (HTRF)-based cell-based dose response assay to identify antagonists of the parental CHO-K1 cell line. [Related pubchem assays (depositor defined):AID434989, AID435008, AID463079, AID485270, AID492963, AID492964, AID492965, AID493232, AID504699, AID504701]; format: functional; details: Cricetulus griseus
[11] = as §1, with “Fluorescence-based” for “Homogeneous time resolved fluorescence (HTRF)-based”, “cell-based high throughput” for “cell-based”, “CHO” for “CHO-K1”; format: functional
Trypsin = Trypsin (Sus scrofa, UniProt P00761); test: trypsin protease activity blockade – biochemical, quenched peptide fluorescence, cherry-pick, selectivity assay for Rce1 protease inhibitor project, dose response (AID 488789)
Sequence of Trypsin (P00761 whole entry): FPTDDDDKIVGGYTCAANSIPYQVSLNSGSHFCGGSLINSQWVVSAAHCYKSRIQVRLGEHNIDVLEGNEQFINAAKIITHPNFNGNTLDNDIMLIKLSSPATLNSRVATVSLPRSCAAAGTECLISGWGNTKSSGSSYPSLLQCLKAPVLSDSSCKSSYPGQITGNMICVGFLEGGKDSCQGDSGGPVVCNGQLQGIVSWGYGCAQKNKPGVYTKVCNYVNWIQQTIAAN

CAAX prenyl protease 2 = CAAX prenyl protease 2 (Homo sapiens, UniProt Q9Y256); test: inhibition of Ras-converting CAAX protease Rce1 – biochemical, yeast membranes, quenched-peptide fluorescence, cherry-pick, dose response (AID 588849)
Sequence of CAAX prenyl protease 2 (Q9Y256 whole entry): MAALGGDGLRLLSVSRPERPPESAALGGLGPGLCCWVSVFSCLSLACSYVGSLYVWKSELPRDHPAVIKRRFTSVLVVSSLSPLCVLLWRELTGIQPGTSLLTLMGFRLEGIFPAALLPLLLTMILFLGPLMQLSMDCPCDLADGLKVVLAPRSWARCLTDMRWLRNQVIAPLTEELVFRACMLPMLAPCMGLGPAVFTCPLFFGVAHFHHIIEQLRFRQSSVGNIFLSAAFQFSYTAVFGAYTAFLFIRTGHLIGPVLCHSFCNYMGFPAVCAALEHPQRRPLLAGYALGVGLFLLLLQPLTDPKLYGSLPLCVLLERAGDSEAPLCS

Escherichia coli [12] = test: microbe, parasite or virus in culture
Escherichia coli [13] = test: microbe, parasite or virus in culture; remark: listed apart in the source
[14] = Trypanosoma cruzi growth suppression in host cells – NIH3T3 host cells, beta-gal luminescence, confirmation (AID 2044); format: functional, cell-based;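 also: intracellular parasites grown in NIH/3T3 mouse fibroblasts as host cells; luminescent beta-galactosidase reporter signal from transgenic T. cruzi replicating inside host cells; inhibitors lower the luminescence signal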
[15] = NIH3T3 cell viability loss – ATP luminescence, mouse fibroblasts, counter-screen, dose response (AID 2010); format: functional, cell-based;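 also: cells exposed to compound for about 90 hours before reading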
Vero = test: cells; format: functional, cell-based; details: Chlorocebus sabaeus

CCn1c(C)nc2cc(-c3nc4n(n3)Cc3ccccc3-4)ccc21
EC50 (BJ [1]): > 133 µM (inactive)
IC50 [2]: 2.69 µM (active)
EC50 (BJ [3]): 1.76 µM (active)
IC50 [4]: > 80 µM (inactive)
IC50 (Jurkat): 0.23 µM (active)
EC50 [5]: 0.311 µM (active)
EC50 (BJ [6]): 6.25 µM (active)
EC50 [7]: 1.71 µM (active)
EC50 [8]: 0.352 µM (active)
EC50 (BJ [9]): 2.18 µM (active)
IC50 [10]: 48.1 µM (inactive)
IC50 (CHO-K1): > 66.2 µM (inactive)
IC50 [11]: > 49.8 µM (inactive)

COc1cccc(Nc2nc(C)nc3c2oc2ccccc23)c1
AC50 (Trypsin): 17 µM (active)
AC50 (CAAX prenyl protease 2): 6 µM (active)

O=[N+]([O-])c1ccc(-c2cc[nH]n2)o1
AC50 (Escherichia coli [12]): 24 µM (active)
AC50 (Escherichia coli [13]): 12.5 µM (active)
EC50 [14]: 0.202 µM (active)
EC50 [15]: > 60 µM (not active)

Cc1ccc(S(=O)(=O)N2C[C@@H](C)[C@]3(C2)[C@H](O)[C@H](OC(=O)Nc2cccs2)C[C@H]2C(=O)N(c4ccccc4)C(=O)[C@H]23)cc1
IC50 (Vero): 22.1 µM (active)
